# According to patent publication US5342850A, “Thiazolidine-2,4-dione derivatives, their salts and their preparation processes” (Kyorin Pharmaceutical Co., Ltd., priority 1991, dated 1994):
# Tests used:
# [1] = tested on: blood glucose; assay: Enhancement of insulin sensitivity in rats; format: in vivo; settings: 10 mg/kg/day p.o. once daily for 5 days; fasted 18 hours; insulin 0.1 unit/kg i.p.; n=5; *P < 0.01
# Method: Blood samples were collected from the tail vein 0 and 1 hour after the injection of insulin for the determination of blood glucose (Table 1).
# [2] = target: T1, aldose reductase extracted from rat lens (Rattus norvegicus, UniProt P07943); assay: Inhibition of aldose reductase in vitro; format: biochemical; settings: method of Hyman and Kinoshita
# T1 construct: aldose reductase extracted from rat lens; from tissue; host or cells: rat lens
# Text: Inhibition of aldose reductase in vitro
# According to the method of Hyman and Kinoshita (J. Biol. Chem., 240, 877, 1965), inhibitory activity of the compound of Example 23 on aldose reductase extracted from rat lens was investigated. As a result, the following IC50 value was obtained (Table 3).
# [3] = tested on: sorbitol content in nerve; assay: Inhibition on sorbitol accumulation in nerve of diabetic rats; format: in vivo; settings: Rattus norvegicus, po, 336 h, streptozotocin rats, 4, 16 or 64 mg/kg/day p.o. once daily 2 weeks
# Method: (§1) Inhibition on sorbitol accumulation in tissues of diabetic rats
# (§2) After diabetic rats were prepared by injecting streptozotocin, they were orally administered with the compound of Example 23 once daily 2 weeks at 4, 16 or 64 mg/kg/day, respectively. The sorbitol content in nerve and retina was determined to calculate ED50 value (Table 4).
# [4] = tested on: sorbitol content in retina; assay: Inhibition on sorbitol accumulation in retina of diabetic rats; format: in vivo; settings: Rattus norvegicus, po, 336 h, streptozotocin rats, 4, 16 or 64 mg/kg/day p.o. once daily 2 weeks
# Method: as §1, §2
# [5] = tested on: blood glucose; assay: Improvement of glucose tolerance in genetically obese mice (OGTT); format: in vivo, Genetically obese mice (CS57BL ob/ob mice); settings: fasted 18 hours, 2 g/kg glucose orally, blood at 0, 30, 60, 120 min
# Method: Improvement of glucose tolerance in genetically obese mice
# Genetically obese mice (CS57BL ob/ob mice) were orally administered with the compound of Example 23 once daily for 5 days at 10, 30 or 100 mg/kg/day, respectively. They were fasted for 18 hours and then 2 g/kg of glucose was orally administered. Blood samples were collected from the tail vein 0, 30, 60 and 120 minutes after the administration of glucose for the determination of blood glucose (Table 2).
smiles,measurement,setting,value
O=C1NC(=O)C(c2ccc(NC(=O)c3ccc(Cl)cc3Cl)cc2)S1 (stereo not shown) [Example 23],0 hour value - 1 hour value (blood glucose),[1],19.4 ± 1.5 mg %
same,IC50,[2],90 nM
same,ED50,[3],14.5 mg/kg
same,ED50,[4],26.5 mg/kg
same,OGTT (% of control),[5]; 10 mg/kg/day p.o. once daily for 5 days,93.5 % of control
same,OGTT (% of control),[5]; 30 mg/kg/day p.o. once daily for 5 days,89.2 % of control
same,OGTT (% of control),[5]; 100 mg/kg/day p.o. once daily for 5 days,74.1 % of control
